# Reference: PubChem BioAssay AID1949 (Southern Research Institute, 2009)
# Inconclusive results are not listed. Calls of active or inactive are those of the source. How the calls were made is not given here.
# System: M. tuberculosis H37Rv growth inhibition
# Test: Mycobacterium tuberculosis H37Rv growth inhibition, cell based, confirmatory dose response (AID 1949);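 further: bacteria grown 7 days with compound before Alamar blue readout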
row,SMILES,IC50
1,CCOC(=O)C1=C(c2ccc(OC)cc2)C(=O)c2ccccc2C1=O,6.6 µg/mL
2,CN1CCN(c2ccc(NC(=O)c3sc4ccccc4c3Cl)cc2)CC1,> 50 µg/mL (inactive)
3,COc1cccc(NC(=S)NC(=O)CC(C)(C)C)c1,13.4 µg/mL
4,O=C(Cc1ccccc1)NC(=S)Nc1ccc(Oc2ccccc2)cc1,7.61 µg/mL
5,COc1cc(CNCCCO)cc(Cl)c1OCc1ccc(Cl)cc1Cl,6.25 µg/mL
6,Cc1ccc(C(C)C)cc1OCCCCn1ccnc1,1.88 µg/mL
7,CC(C)(C)Nc1nc(N2CCCC2)nc(N2CCCC2)n1,> 50 µg/mL (inactive)
8,CC1CCN(C(=S)NC(=O)c2ccc(Cl)cc2)CC1,0.35 µg/mL
9,CCCCNCCOCCOc1ccc(Cl)cc1C(C)(C)C,4.33 µg/mL
10,Cc1ccc2[nH]c3c(c2c1)CCCC3NCCCOc1ccc(F)cc1 (stereo not given),1.7 µg/mL
11,O=C1OCCC1Sc1cccc2cccnc12 (stereo not given),7.31 µg/mL
12,Oc1ccc(Cl)cc1C1=NNC(c2ccccc2Cl)C1 (stereo not given),0.65 µg/mL
13,O=S(Cc1ccccc1)c1nc2ccccc2s1 (stereo not given),3.15 µg/mL
14,Oc1cccc(Nc2nc(NCc3ccccc3)c3ccccc3n2)c1,0.98 µg/mL
15,CCOC(=O)COc1ccc2oc(C)c(C(=O)OC)c2c1,6.25 µg/mL
16,O=c1cc(-c2ccccc2)nc2c(-c3cccc4ccccc34)c(Cc3ccccc3)[nH]n12,41.9 µg/mL
17,Oc1ccc(Br)c2cccnc12,< 0.1 µg/mL
18,CSc1ccc(C(CC(=O)c2ccccc2)Nc2ccc(F)cc2)cc1 (stereo not given),1.47 µg/mL
19,CCC(=O)Oc1cccc2ccc(/C=C/c3ccc(C(=O)OC)cc3)nc12,3.21 µg/mL
20,CC1CC(C)CN(C(=O)Nc2ccc(Cl)c(Cl)c2)C1 (stereo not given),1.21 µg/mL
21,CN(Cc1ccccc1)C(=S)NC(=O)c1cccs1,0.74 µg/mL
22,O=C(Oc1cccc2cccnc12)c1ccc(Cl)c(S(=O)(=O)N2CCOCC2)c1,1.48 µg/mL
23,Cc1cccc(OCCn2cnc3cc(C)c(C)cc32)c1,4.52 µg/mL
24,COc1cc(/C=C/c2ccc3cccc(O)c3n2)ccc1O,0.27 µg/mL

row,SMILES,IC50
1,COc1ccc(OC)c(NC(=O)c2cc3cc(Br)ccc3oc2=O)c1,0.2 µg/mL
2,FC(F)(F)c1cccc(-n2cc(-c3ccccc3)c3c(NCc4cccnc4)ncnc32)c1,1.51 µg/mL
3,COc1ccc(-c2nnc(SCC(=O)Nc3ccc([N+](=O)[O-])cc3)o2)cc1,0.64 µg/mL
4,O=C(Nc1cc(Cl)ccc1O)c1cc(Cl)ccc1Cl,12.2 µg/mL
5,Cc1ccc(-c2csc(-c3ccc(O)cc3)n2)cc1,2.69 µg/mL
6,Cc1ccc(NC(=O)c2cc3cc(Cl)cc(Cl)c3oc2=O)c(C)c1,1.1 µg/mL
7,O=[N+]([O-])c1ccc(NC(=S)NCc2ccc(F)cc2)cc1,4.86 µg/mL
8,CCC(C(=O)O/N=C(\N)Cc1cccc2ccccc12)c1ccccc1 (stereo not given),10.1 µg/mL
9,CCCCOc1ccc(S(=O)(=O)Nc2ccc(C)c(Cl)c2)cc1,5.13 µg/mL
10,Cc1ccc(-c2nnc(N3CCN(C(=O)c4ccc(Cl)cc4)CC3)c3ccccc23)cc1,3.65 µg/mL
11,COc1ccc(OCC(=O)Nc2cccc(Cl)c2)cc1,2.78 µg/mL
12,Cc1ccc(C)c(N2C(=O)c3cccc4c([N+](=O)[O-])ccc(c34)C2=O)c1,0.76 µg/mL
13,Cc1ccc(CNC(=S)Nc2ccc(N(C)C)cc2)cc1,5.34 µg/mL
14,O=C(CSc1ccc(F)cc1)Nc1ccccc1F,5.83 µg/mL
15,C=CCc1cc(C)ccc1OCCCn1ccnc1,3.52 µg/mL
16,O=S1(=O)C=CC2ON=C(c3ccc(Cl)cc3)C21 (stereo not given),1.11 µg/mL
17,Cc1ccc(-c2csc(Nc3ccc(C(=O)O)c(O)c3)n2)cc1,1.46 µg/mL
18,O=C(Nc1ccc(Cc2ccncc2)cc1)c1ccc(-c2cccc(C(F)(F)F)c2)o1,12 µg/mL
19,CC(C)c1ccc(OCC(=O)Nc2nc(C(C)(C)C)cs2)cc1,3.87 µg/mL
20,CC(Oc1ccc(C(=O)NCCc2ccccc2)cc1)C(=O)OCc1ccccc1 (stereo not given),2.32 µg/mL
21,C#CCOc1c(Br)cc(/C=C/[N+](=O)[O-])cc1OC,38.2 µg/mL
22,O=C(Nc1ccc(OC(F)(F)C(F)F)cc1)Nc1cccc(Cl)c1,0.75 µg/mL
23,COc1ccc(OC)c(NC(=O)Nc2ccc(Cl)c(C(F)(F)F)c2)c1,1.72 µg/mL
24,COc1ccc(C(C)(C)C)cc1NC(=S)Nc1ccc(Cl)c(Cl)c1,1.43 µg/mL

row,SMILES,IC50
1,O=C(Nc1nccs1)c1cc(Cl)cc(Cl)c1,10.2 µg/mL
2,O=C(NC(=S)N1CCc2ccccc21)c1ccccc1,1.45 µg/mL
3,CCC(C)c1ccc(OCCn2ccnc2)cc1 (stereo not given),2.73 µg/mL
4,CCCCc1ccc(NC(=O)COc2ccc(OCC)cc2)cc1,4.9 µg/mL
5,CCCOc1ccc(C2Oc3ccc(Br)cc3C=C2[N+](=O)[O-])cc1OC (stereo not given),1.48 µg/mL
6,CCn1c2ccccc2c2nnc(SCCCn3c(=O)[nH]c4ccccc43)nc21,> 50 µg/mL (inactive)
7,CC(=O)c1c(C)nc(-c2ccc(Cl)c(Cl)c2)n1O,17.4 µg/mL
8,C(=NN1CCN(C2c3ccccc3-c3ccccc32)CC1)c1ccncc1,11.2 µg/mL
9,Cc1ccc([N+](=O)[O-])cc1NC(=O)c1cc(Cl)ccc1O,29.7 µg/mL
10,COC(=O)c1ccc(NC(=O)CSc2nnc(Cc3ccc(OC)cc3)o2)cc1,11.1 µg/mL
11,Cc1cccc2sc(NC(=O)c3ccc(C(C)(C)C)cc3)nc12,1.39 µg/mL
12,Cc1cc(C)nc(Nc2ccc(N3CCCC3)cc2)n1,9.69 µg/mL
13,O=C(CCNc1ccc(Cc2ccncc2)cc1)c1cccs1,5.83 µg/mL
14,CCOC(=O)/C=C/C(=O)Nc1nc(-c2ccccc2)cs1,0.53 µg/mL
15,CC1CN(c2ccc([N+](=O)[O-])cc2)CCN1C(=O)c1cccc(Br)c1 (stereo not given),2.83 µg/mL
16,Cc1cc(C)c(-n2c(O)c(/C=C3\C=CC=N3)c(=O)[nH]c2=O)c(C)c1,0.13 µg/mL
17,Cc1ccc(OCC(O)CN2CCc3ccccc3C2)c(C(C)(C)C)c1 (stereo not given),5.9 µg/mL
18,O=C(Oc1cccc2cccnc12)c1cccc([N+](=O)[O-])c1,10.8 µg/mL
19,CCOc1ccc(Nc2nc(-c3sc(C)nc3C)cs2)cc1,3.38 µg/mL
20,Cc1cc(OCCOCCn2ccnc2)cc(C(C)C)c1,> 50 µg/mL (inactive)
21,CCOC(=O)COc1ccc(S(=O)(=O)Nc2ccc(C)c(C)c2)cc1,1.03 µg/mL
22,COC(C)(C)C#CC(=O)c1cccc2ccccc12,2.78 µg/mL
23,CCOC(=O)c1ccc(NC(=S)Nc2ccc(Oc3ccccc3)cc2)cc1,0.39 µg/mL
24,CC(=O)c1ccc(NC(=O)NC(C)C23CC4CC(CC(C4)C2)C3)cc1 (stereo not given),19 µg/mL

row,SMILES,IC50
1,CCOC(=O)COc1ccc(S(=O)(=O)N2CCc3ccccc3C2)cc1,0.64 µg/mL
2,Cn1c(NC(=S)Nc2ccccc2)nc2ccccc21,0.35 µg/mL
3,CC(C)OC(=O)COc1ccc(-c2ccccc2)cc1,> 50 µg/mL (inactive)
4,O=c1c2oc3cccc4c3n(c=2c(=O)c2ccccc12)CCC4,5.4 µg/mL
5,CC1=CC(C)(C)N2C(=O)C(=O)c3cc(OC(=O)c4ccccc4C)cc1c32,8.23 µg/mL
6,COC(=O)c1ccc(NC(=O)CSc2nnc(-c3ccc(Br)cc3)o2)cc1,5.83 µg/mL
7,COc1cccc(NC(=O)c2c(NC(=O)c3cccnc3)sc3c2CCC3)c1,0.1 µg/mL
8,CCCc1ccc(OCC(=O)Nc2ccc(Cl)cc2Cl)cc1,2.86 µg/mL
9,O=C(CSc1nnc(SCc2cccc3ccccc23)s1)Nc1ccccc1F,1.45 µg/mL
10,CCOC(=O)c1ccc2nc(C)cc(Nc3ccc(N4CCCCC4)cc3)c2c1,2.41 µg/mL
11,N#Cc1cc2c(ccc3ccccc32)oc1=O,2.12 µg/mL
12,CC(C)(C)n1cnc2cc(NC(=O)c3ccc(Cl)cc3)ccc21,0.99 µg/mL
13,Cc1ccc(N2CC(C(=O)OCc3cccc(C(=O)Oc4ccccc4)c3)CC2=O)cc1 (stereo not given),> 50 µg/mL (inactive)
14,CC12CC3CC(C)(C1)CC(CNCc1ccccc1O)(C3)C2,2.89 µg/mL
15,COc1ccc(OCc2nn3c(-c4ccc(C(C)(C)C)cc4)nnc3s2)cc1,> 50 µg/mL (inactive)
16,Cc1cc(OCC(O)CN2CCN(c3ccc(F)cc3)CC2)ccc1C(C)C (stereo not given),11.7 µg/mL
17,CCOC(=O)c1c(NC(=O)c2c(F)c(F)c(F)c(F)c2F)sc(C(N)=O)c1C,< 0.1 µg/mL
18,O=C1c2ccc(-c3nc4ccccc4c(=O)o3)cc2C(=O)N1Cc1ccccc1,> 50 µg/mL (inactive)
19,O=C(CCN1CCc2ccccc2CC1)c1ccc2c(c1)OCCO2,8.36 µg/mL
20,CCOc1ccc(OCC(=O)Nc2cc(C)cc(C)c2)cc1,1.51 µg/mL
21,Cc1cccc(C(=O)NC(=S)N2CCC(C)CC2)c1,2.97 µg/mL
22,COc1cccc(NC(=O)Nc2ccc(C(F)(F)F)cc2)c1,5.23 µg/mL
23,O=C(COc1cccc2ccccc12)c1ccc(Cl)cc1,34 µg/mL
24,O=Cc1cccc(OCC(=O)Nc2cccc(Cl)c2)c1,45 µg/mL

row,SMILES,IC50
1,COc1ccc(CC(=O)Nc2ccc(-c3nc4ccccc4c(=O)o3)cc2)cc1,15.1 µg/mL
2,Cn1nnc(NC(=O)COc2ccc(C3CCCCC3)cc2)n1,2.85 µg/mL
3,CC(=O)Oc1ccc2nc(-c3ccc(C(C)(C)C)cc3)oc(=O)c2c1,> 50 µg/mL (inactive)
4,COc1cc(C(=O)Nc2nc3c(s2)CCCC3)c(Br)c(OC)c1OC,2.8 µg/mL
5,CCC(C)Oc1c(Cl)cc(/C=C\[N+](=O)[O-])cc1OC (stereo not given),> 50 µg/mL (inactive)
6,CC(C)CC(=O)NC(c1ccc(Cl)cc1Cl)c1c(O)ccc2ccccc12 (stereo not given),1.72 µg/mL
7,CC(=O)Nc1nc2ccccc2n1CCOc1ccccc1,2.94 µg/mL
8,O=C(Nc1ccc(Oc2ccccc2)cc1)Nc1cccc([N+](=O)[O-])c1,1.09 µg/mL
9,CCc1ccc(Oc2nc([N+](=O)[O-])nn2C)cc1,1.13 µg/mL
10,O=C(Nc1ccc(Cl)c(C(F)(F)F)c1)c1ccc2c(c1)OCO2,> 50 µg/mL (inactive)
11,CC(C)(C)c1ccc(Cn2cnc([N+](=O)[O-])n2)cc1,< 0.1 µg/mL
12,CCC(Oc1ccc2c(-c3ccccc3)cc(=O)oc2c1)C(=O)OCc1ccccc1 (stereo not given),3.8 µg/mL
13,Cc1ccccc1/C=C/c1ccc2cccc(O)c2n1,< 0.1 µg/mL
14,COc1ccc(C2(C(=O)Nc3ccc(Br)cc3)CCCC2)cc1,1.37 µg/mL
15,O=C(CC1CCCCC1)c1c(O)c2ccccc2oc1=O,> 50 µg/mL (inactive)
16,COC(=O)COc1ccc2c(=O)c(Oc3cnn(-c4ccccc4)c3)c(C)oc2c1,3.89 µg/mL
17,COc1ccc(C2=CC(c3ccccc3Cl)n3nnnc3N2)cc1OC (stereo not given),24.1 µg/mL
18,Cc1cccc(OC(C)C(=O)Nc2ccc([N+](=O)[O-])cc2)c1C (stereo not given),3.13 µg/mL
19,S=C(NCCc1ccccc1)NCCc1ccc(Cl)cc1,9.95 µg/mL
20,Clc1ccc(OCCn2ccnc2)cc1Cl,7.53 µg/mL
21,O=C(CCSc1ccc(Cl)cc1)Nc1ccc(F)c(Cl)c1,4.06 µg/mL
22,Cc1cc(C)nc(/N=C(\N)Nc2ccc(OCc3ccc(Cl)cc3)cc2)n1,34.4 µg/mL
23,O=C1c2ccccc2C(=O)c2c1nc1n2CCCC1,> 50 µg/mL (inactive)
24,COc1cc([N+](=O)[O-])ccc1NC(=S)Nc1ccc(F)c(Cl)c1,2.76 µg/mL
